Data set [1] has as its system blood cells. As to the kind of experiment: Blood cell counts. In kind it is in vivo, rat.
The test system of data set [2] is bleeding time in rats. Nature of the data set: Induced haemorrhagic (bleeding) time, tail cut. In kind it is in vivo, rat. How it is done: Induced Haemorrahgic Time IHT
(E. Dejana. Bleeding time in rats. Thrombosis. Rech. 1982) Blood samples are made before the test. The tail of anaesthetised rat, is dipped for 5 minutes in a water bath at 37° C. so as to provoke a dilatation of the peripheral vessels which are removed and cut at the end, the chronometer being started. The IHT is defined as being the time period comprised between the cutting of end tail and the end of the haemorrhage or bleeding. The end of haemorrhage is defined as the time where the last drop of blood is removed from the tail and no other drop is seen for 180 seconds. […]

In data set [3] the test system is coagulation factors. As to the kind of experiment: Biological balance (Quick time, ACT, fibrinogen, α2AP, AT III). In kind it is in vivo, rat.
The test system of data set [4] is arterial thrombosis induced by laser beam in the mesenteric microcirculation of the rat. As to the kind of experiment: Laser-induced thrombosis in the mesenteric microcirculation. Type of data set: in vivo. The text has this:
A/Principle of Laser-induced Thrombosis (Seiffge D. et al., 1989; Weichter W. et al., 1983).
In this model, lesion of the vascular wall is induced by a laser beam. This beam causes a limited lesion of the vascular endothelium (only 1 to 2 cells are destroyed). This laying bare of the sub-endothelium, which is a thrombogenetic surface, results in the adherence of platelets via […]. This adherence of platelets is followed by the activation thereof. They form pseudopods and secrete the content of their granules. This activation results in the appearance of glycoproteins IIb-IIIa which are necessary for the aggregation of the platelets between them. This lesion is induced in the mesenteric microcirculation of the rat. It is immediately followed by the formation of a thrombus (in a few seconds). This thrombus, which rapidly enlarges under the influence of the flow of blood, embolises before being formed again.
By this manes, the assessment of the effect of glycine betaine was conducted pharmacologically in conjunction with the study of two active molecules used as a reference; namely acetylsalicylic acid and heparin (of low molecular weight). The assessment also involved the activity of glycine betaine in relation to the prothrombotic effects induced by contrasting products.
Male Wistar rats were used for these tests. They weighed between 200 and 250 grams. After an 8-day stabilisation period, the rats were subjected to fasting for 12 hours. They were then anaesthetised, glycine betaine was administered subcutaneously, and the mesentery (laser) or vena cava (stasis) was opened at the end of the experiments.

For data set [5], the system named is platelet aggregation. Nature of the data set: Whole blood platelet aggregation ex vivo (aggregometer). In kind it is in vivo, rat. Conditions: after laser firings. As to the method:
The aggregation is made in accordance to the methods of Cardinal & Flower. Pharmacol. Method. 1980, and to American Journal of Clinical Pathology, 1989; 92: 676-679, Sureney. J D. Whole Blood aggregometry. After a keeping period of 8 days, the rats are subjected to a fasting for 12 hours. […] The rats are then anaesthetised with sodium Thiopental administered at a dose of 200 mg/Kg and the blood samples are taken by intracardiac puncture on a trisodium citrate solution (1 volume of solution at 3.8% citrate for 9 volumes of blood).

Where [6] appears, read: rat, glycine betaine 5 mg/kg, acetylsalicylic acid 100 mg/kg, heparin 2 mg/kg.
Where [7] appears, read: rat, after laser firings, glycine betaine 5 mg/kg, acetylsalicylic acid 100 mg/kg, heparin 2 mg/kg.
Where [8] appears, read: contrasting products alone or with glycine betaine 5 mg/kg.
The mark [9] stands for this setting: after laser firings and administration of contrasting products, alone or with glycine betaine 5 mg/kg.

For `CC(=O)Oc1ccccc1C(=O)O` [Acetylsalicylic acid], in data set [1] (setting [6]), the Number of platelets is recorded as 855.33 ± 63.17 10^9, the “Number of red corpuscles” value is 6.15 ± 0.31 10^12 and the “Number of white corpuscles” value was 4.33 ± 1.00 10^9. This compound yielded a Bleeding time in data set [2] (setting [6]) of 276.67 ± 20.82 s. Moreover, in data set [3] (setting [6]), the “ACT (Activated cephaline time)” value is 27.26 ± 1.1 s, the “AT III (Antithrombin III)” value is on record as 85.33 ± 3.51%, the Fibrinogen came to 2.19 ± 0.33 g/L and the “QT (Quick time)” value turned out to be 18.33 ± 2.08 s. In addition, the “α2AP (Alpha,2-antiplasmin)” value in data set [3] (setting [6]) is recorded as 29.36 ± 0.92%. In data set [4] (setting [7]), the Duration of embolisation was 0.33 ± 0.58 min and the “Number of emboles or embolies” value is 1 ± 1. Moreover, in data set [5] (setting [6]), the “Amplitude (platelet aggregation)” value worked out at 2.33 ± 2.08 ohms and the “Velocity (platelet aggregation)” value was 2 ± 1 ohms/min.

Regarding `C[C@H](O)C(=O)Nc1c(I)c(C(=O)NC(CO)CO)c(I)c(C(=O)NC(CO)CO)c1I` [Iopamidol ®, Iopamidol], in data set [1] (setting [8]), the Number of platelets is 585.67 ± 23.54 10^9. Also, the “IBD (induced bleeding time)” value in data set [2] (setting [8]) worked out at 128 ± 7.64 s. In data set [3] (setting [8]), the “ACT (Activated cephaline time)” value came out at 41.33 ± 0.8 s, the “AT III (Antithrombin III)” value is given as 70.6 ± 1.51%, the Fibrinogen turned out to be 1.5 ± 0.8 g/L and the “QT (Quick time)” value was 28.1 ± 0.75 s. In addition, the “α2AP (Alpha,2-antiplasmin)” value in data set [3] (setting [8]) amounted to 25.23 ± 0.95%. In addition, in data set [4] (setting [9]), the Duration of embolisation was found to be 6.33 ± 0.52 min and the Number of emboles is on record as 11.67 ± 0.50. Moreover, in data set [5] (setting [8]), the “Amplitude (platelet aggregation)” value was determined as 15 ± 2.64 ohm and the “Velocity (platelet aggregation)” value is recorded as 12.33 ± 0.50 ohm/min.

For the origin of these results see patent US7608640B2, “Glycine betaine and its use” (priority 2001, dated 2009).
